Measurements: patent US7045343B2, “Sterilization indicator test packs” (3M Innovative Properties Company, priority 1998, dated 2006)

Experiments:
[1] = tested on: Bacillus stearothermophilus spores; assay: Spore outgrowth (color change) of indicators after prevacuum steam sterilization; assay type: cell-based; settings: Example 4, 4-pulse prevacuum steam 121° C., 7–18 min
In short: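 Bacillus stearothermophilus ATCC 7953 spores were cleaned, mixed into a heated sterilant-resistant coating chemical solution and pipetted onto paper strips at about 1×10^6 spores per strip. The strips were dried and placed in indicators, then exposed to a 4-pulse prevacuum steam cycle at 121° C. After exposure the media ampoule was crushed, and growth was judged visually as a purple-to-yellow color change after 168 hours at 60° C.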

[2] = tested on: Bacillus stearothermophilus spores; assay: Spore outgrowth (color change) of indicators after hydrogen peroxide plasma sterilization; assay type: cell-based; settings: 1–22 min diffusion
Description: (§1) Sterilization indicators for Examples 6–9 were prepared as described above with the exception that closure member 22 of the sterilization indicator was constructed of TYVEK™ high-density polyethylene fiber material, commercially available from E.I. du Pont de Nemours and Co., Wilmington, Del.
(§2) Sterilization indicators were made as described above with spores that had been coated with each of the chemicals and concentrations listed in Table 6. The indicators were placed in instrument trays and exposed to a hydrogen peroxide plasma sterilization procedure at 45–55° C. in a STERRAD™ 100SI GMP Sterilizer, obtained from Advanced Sterilization Products Co., Irvine, Calif. During the sterilization procedure a vacuum was drawn in the sterilization chamber for 5–6 minutes until the pressure was reduced to 300 mTorr. A 1.8 ml aliquot of an aqueous solution of 58–60% hydrogen peroxide was then injected into the sterilization chamber over a period of about 6 minutes, yielding an empty chamber concentration of […] hydrogen peroxide, and hydrogen peroxide vapor was allowed to diffuse throughout the chamber for 1–22 minutes at 6–10 Torr. A vacuum was then drawn, reducing the pressure to 500 mTorr and removing all detectable hydrogen peroxide vapor from the chamber.
(§3) After exposure to the sterilization procedure, the indicators were removed from the sterilizer and the inner containers containing the enzyme substrate and nutrient medium were crushed. The indicators were then incubated at 60° C. and examined for fluorescence every hour for 5 hours using a 3M™ ATTEST™ Model 190 Rapid Autoreader, commercially available from 3M Company, St. Paul, Minn. Additionally, spore growth, as indicated by a color change from purple to yellow, was determined visually after 168 hours of incubation.
(§4) The number of growth positive indicators detected after 168 hours of incubation is recorded in Table 6.
as §2, with “7.” for “6.”
as §2, with “8.” for “6.”, “chamber. […]” for “chamber.”

[3] = tested on: enzyme associated with Bacillus stearothermophilus spores; assay: Rapid enzyme fluorescence readout of dual rapid readout indicators after prevacuum steam sterilization; assay type: biochemical; settings: 4-pulse prevacuum steam 121° C.; for FLUORESCENCE - PERCENT POSITIVE 1 HR / FLUORESCENCE - PERCENT POSITIVE 2 HR / FLUORESCENCE - PERCENT POSITIVE 3 HR / FLUORESCENCE - PERCENT POSITIVE 4 HR: Example 4, 7–18 min
In short: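 Bacillus stearothermophilus ATCC 7953 spores were coated with a sterilant-resistant chemical solution and pipetted onto paper strips at about 1×10^6 spores per strip. Each strip sat in a dual rapid readout indicator beside a crushable inner container of nutrient medium holding 4-methylumbelliferyl-alpha-D-glucoside at pH 7.6. Indicators went through a 4-pulse prevacuum steam cycle at 121° C, were activated, incubated at 60° C, and read for fluorescence on a 3M ATTEST Model 190 Rapid Autoreader.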

[4] = tested on: enzyme associated with Bacillus stearothermophilus spores; assay: Rapid enzyme fluorescence readout of indicators after hydrogen peroxide plasma sterilization; assay type: biochemical; settings: for FLUORESCENCE - PERCENT POSITIVE 1 HR / FLUORESCENCE - PERCENT POSITIVE 2 HR / FLUORESCENCE - PERCENT POSITIVE 3 HR / FLUORESCENCE - PERCENT POSITIVE 4 HR / FLUORESCENCE - PERCENT POSITIVE 5 HR: 1–22 min diffusion; for accuracy of sterilization indicators compared to indicators made with untreated spores: 1–3 hours after exposure
Description: as §1, §2, §3, §4
as §2, with “7.” for “6.”
as §2, with “8.” for “6.”, “chamber. […]” for “chamber.”

Substance | NO. GROWTH POSITIVE 168 HR ([1]; 50 mg/ml coating) | NO. GROWTH POSITIVE 168 HR ([1]; 100 mg/ml coating) | NO. GROWTH POSITIVE 168 HR ([2]; Example 6, 50 mg/ml coating) | FLUORESCENCE - PERCENT POSITIVE 1 HR ([3]; 50 mg/ml coating) [%] | FLUORESCENCE - PERCENT POSITIVE 2 HR ([3]; 50 mg/ml coating) [%] | FLUORESCENCE - PERCENT POSITIVE 3 HR ([3]; 50 mg/ml coating) [%] | FLUORESCENCE - PERCENT POSITIVE 4 HR ([3]; 50 mg/ml coating) [%] | FLUORESCENCE - PERCENT POSITIVE 1 HR ([3]; 100 mg/ml coating) [%] | FLUORESCENCE - PERCENT POSITIVE 2 HR ([3]; 100 mg/ml coating) [%] | FLUORESCENCE - PERCENT POSITIVE 3 HR ([3]; 100 mg/ml coating) [%] | FLUORESCENCE - PERCENT POSITIVE 4 HR ([3]; 100 mg/ml coating) [%] | FLUORESCENCE - PERCENT POSITIVE 1 HR ([4]; Example 6, 50 mg/ml coating) [%] | FLUORESCENCE - PERCENT POSITIVE 2 HR ([4]; Example 6, 50 mg/ml coating) [%] | FLUORESCENCE - PERCENT POSITIVE 3 HR ([4]; Example 6, 50 mg/ml coating) [%] | FLUORESCENCE - PERCENT POSITIVE 4 HR ([4]; Example 6, 50 mg/ml coating) [%] | FLUORESCENCE - PERCENT POSITIVE 5 HR ([4]; Example 6, 50 mg/ml coating) [%] | accuracy of sterilization indicators compared to indicators made with untreated spores [3] | accuracy of sterilization indicators compared to indicators made with untreated spores [4] | further results
Decaglyceryl Trioleate | 19 | 26 | 40 | 0.0 | 21.1 | 47.4 | 68.4 | 23.1 | 50.0 | 73.1 | 92.3 | 85.0 | 97.5 | 100 | 100 | 100 | – | – | –
Decaglyceryl Dipalmitate | 28 | 26 | – | 7.1 | 67.9 | 89.3 | 92.9 | 34.6 | 61.5 | 69.2 | 69.2 | – | – | – | – | – | improved | – | NO. GROWTH POSITIVE 168 HR ([2]; Example 8, 50 mg/ml coating): 27; FLUORESCENCE - PERCENT POSITIVE 1 HR ([4]; Example 8, 50 mg/ml coating): 66.7%; FLUORESCENCE - PERCENT POSITIVE 2 HR ([4]; Example 8, 50 mg/ml coating): 74.1%; FLUORESCENCE - PERCENT POSITIVE 3 HR ([4]; Example 8, 50 mg/ml coating): 77.8%; FLUORESCENCE - PERCENT POSITIVE 4 HR ([4]; Example 8, 50 mg/ml coating): 77.8%; FLUORESCENCE - PERCENT POSITIVE 5 HR ([4]; Example 8, 50 mg/ml coating): 77.8%
Decaglyceral Hexaoleate | 9 | 18 | – | 0 | 0 | 22.2 | 55.6 | 5.6 | 16.7 | 27.8 | 33.3 | – | – | – | – | – | – | improved | NO. GROWTH POSITIVE 168 HR ([2]; Example 6, 10 mg/ml coating): 12; FLUORESCENCE - PERCENT POSITIVE 1 HR ([4]; Example 6, 10 mg/ml coating): 100%; FLUORESCENCE - PERCENT POSITIVE 2 HR ([4]; Example 6, 10 mg/ml coating): 100%; FLUORESCENCE - PERCENT POSITIVE 3 HR ([4]; Example 6, 10 mg/ml coating): 100%; FLUORESCENCE - PERCENT POSITIVE 4 HR ([4]; Example 6, 10 mg/ml coating): 100%; FLUORESCENCE - PERCENT POSITIVE 5 HR ([4]; Example 6, 10 mg/ml coating): 100%
Tetraglyceryl Monooleate | 17 | 35 | 11 | 0.0 | 52.9 | 52.9 | 58.8 | 57.1 | 100.0 | 100.0 | 100.0 | 76.6 | 90.9 | 100 | 100 | 100 | improved | improved | –
